Experimental data published in patent US20260285850A1, “SUBSTITUTED OXAZOLIDINONES AND IMIDAZOLINONES AS HERBICIDES” (FMC CORPORATION, priority 2023, published 2026).

Key:
Type in all cases: in vivo
[1] = test system: sedge, umbrella (small-flower umbrella sedge, Cyperus difformis); assay: Test B flooded paddy test, visual plant response rating 0-100; details: 250 g ai/ha, Flood, applied to paddy water, evaluated after 13 days
In short: (§1)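 Each species was raised to two leaves before flooding to a 3 cm depth and dosing the water with compound. Injury was assessed by eye after 13 days under greenhouse conditions.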

[2] = test system: barnyardgrass (Echinochloa crusgalli); assay: as above; details: 250 g ai/ha, Flood, applied to paddy water, evaluated after 13 days
In short: as §1

[3] = test system: ducksalad (Heteranthera limosa); assay: as above; details: 250 g ai/ha, Flood, applied to paddy water, evaluated after 13 days
In short: as §1

rice (Oryza sativa) = assay: as above; details: 250 g ai/ha, Flood, applied to paddy water, evaluated after 13 days
In short: as §1

corn (Zea mays) [4] = assay: Test A preemergence soil spray, visual injury rating 0-100; details: 10 days, 0 = no effect, 100 = complete control
In short: (§2)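 Greenhouse test: loam/sand pots received a surfactant-containing formulation, as a preemergence directed soil spray or a postemergence spray on young plants. Injury was judged visually at day 10 relative to untreated controls.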

[5] = test system: blackgrass (Alopecurus myosuroides); assay: as above; details: 10 days, 0 = no effect, 100 = complete control
In short: as §2

[6] = test system: green foxtail (Setaria viridis); assay: as above; details: 10 days, 0 = no effect, 100 = complete control
In short: as §2

[7] = test system: barnyardgrass (Echinochloa crus-galli); assay: as above; details: 10 days, 0 = no effect, 100 = complete control
In short: as §2

[8] = test system: oat, wild (wild oat, Avena fatua); assay: as above; details: 10 days, 0 = no effect, 100 = complete control
In short: as §2

[9] = test system: ragweed (common ragweed, Ambrosia artemisiifolia); assay: as above; details: 10 days, 0 = no effect, 100 = complete control
In short: as §2

[10] = test system: wheat (Triticum aestivum); assay: as above; details: 10 days, 0 = no effect, 100 = complete control
In short: as §2

soybean (Glycine max) [11] = assay: as above; details: 10 days, 0 = no effect, 100 = complete control
In short: as §2

[12] = test system: palmer (palmer amaranth, palmer pigweed, Amaranthus palmeri); assay: as above; details: 10 days, 0 = no effect, 100 = complete control
In short: as §2

[13] = test system: ryegrass, Italian (italian ryegrass, Lolium multiflorum); assay: as above; details: 10 days, 0 = no effect, 100 = complete control
In short: as §2

kochia (Bassia scoparia) [14] = assay: as above; details: 10 days, 0 = no effect, 100 = complete control
In short: as §2

corn (Zea mays) [15] = assay: Test A postemergence application, visual injury rating 0-100; details: 10 days
Excerpt: (§3) Seeds of plant species selected from barnyardgrass (Echinochloa crus-galli), blackgrass (Alopecurus myosuroides), corn (Zea mays), foxtail, giant (giant foxtail, Setaria faberi), green foxtail (Setaria viridis), goosegrass (Eleusine indica), kochia (Bassia scoparia), oat, wild (wild oat, Avena fatua), palmer (palmer amaranth, palmer pigweed, Amaranthus palmeri), ragweed (common ragweed, Ambrosia artemisiifolia), ryegrass, Italian (italian ryegrass, Lolium multiflorum), soybean (Glycine max) and wheat (Triticum aestivum) were planted into a blend of loam soil and sand and treated preemergence with a directed soil spray using test chemicals formulated in a non-phytotoxic solvent mixture which included a surfactant.
(§4) At the same time, plants selected from these crops and weed species and also galium (catchweed bedstraw, Galium aparine) and horseweed (Erigeron canadensis) were planted in pots containing the same blend of loam soil and sand and treated with postemergence applications of test chemicals formulated in the same manner. Plants ranged in height from 2 to 10 cm and were in the one- to two-leaf stage for the postemergence treatment. Treated plants and untreated controls were maintained in a greenhouse for 10 days, after which time all treated plants were compared to untreated controls and visually evaluated for injury. Plant response ratings, summarized in Table A, are based on a 0 to 100 scale where 0 is no effect and 100 is complete control. A dash (-) response means no test result.

[16] = test system: blackgrass (Alopecurus myosuroides); assay: as above; details: 10 days
Excerpt: as §3, §4

[17] = test system: green foxtail (Setaria viridis); assay: as above; details: 10 days
Excerpt: as §3, §4

[18] = test system: barnyardgrass (Echinochloa crus-galli); assay: as above; details: 10 days
Excerpt: as §3, §4

[19] = test system: oat, wild (wild oat, Avena fatua); assay: as above; details: 10 days
Excerpt: as §3, §4

[20] = test system: ragweed (common ragweed, Ambrosia artemisiifolia); assay: as above; details: 10 days
Excerpt: as §3, §4

[21] = test system: horseweed (Erigeron canadensis); assay: as above; details: 10 days
Excerpt: as §3, §4

[22] = test system: wheat (Triticum aestivum); assay: as above; details: 10 days
Excerpt: as §3, §4

soybean (Glycine max) [23] = assay: as above; details: 10 days
Excerpt: as §3, §4

[24] = test system: palmer (palmer amaranth, palmer pigweed, Amaranthus palmeri); assay: as above; details: 10 days
Excerpt: as §3, §4

[25] = test system: ryegrass, Italian (italian ryegrass, Lolium multiflorum); assay: as above; details: 10 days
Excerpt: as §3, §4

kochia (Bassia scoparia) [26] = assay: as above; details: 10 days
Excerpt: as §3, §4

[27] = 31 g ai/ha, postemergence, 0 = no effect, 100 = complete control
[28] = Postemergence, 125 g ai/ha, 0 is no effect, 100 is complete control

Compound: CC(C)OC(=O)C1CCC(NC(=O)C2(C)CN(c3cc(F)cc(F)c3)C(=O)O2)C1 (centres unmarked) [Compound 12]
- Plant response rating, Sedge, Umbrella (0 to 100 scale, 0 is no effect and 100 is complete control) [1]: 0
- Plant response rating, Barnyardgrass (0 to 100 scale, 0 is no effect and 100 is complete control) [2]: 0
- Plant response rating, Ducksalad (0 to 100 scale, 0 is no effect and 100 is complete control) [3]: 0
- Plant response rating, Rice (0 to 100 scale, 0 is no effect and 100 is complete control) (rice (Oryza sativa)): 0
- Corn plant response rating (0-100) (corn (Zea mays) [4]; 31 g ai/ha): 0
- Corn plant response rating (0 to 100 scale) (corn (Zea mays) [4]; 125 g ai/ha): 50
- Blackgrass plant response rating (0-100) ([5]; 31 g ai/ha): 20
- Blackgrass plant response rating (0 to 100 scale) ([5]; 125 g ai/ha): 80
- Foxtail, Green plant response rating (0-100) ([6]; 31 g ai/ha): 0
- Foxtail, Green plant response rating (0 to 100 scale) ([6]; 125 g ai/ha): 50
- Barnyardgrass plant response rating (0-100) ([7]; 31 g ai/ha): 0
- Barnyardgrass plant response rating (0 to 100 scale) ([7]; 125 g ai/ha): 90
- Oat, Wild plant response rating (0-100) ([8]; 31 g ai/ha): 0
- Oat, Wild plant response rating (0 to 100 scale) ([8]; 125 g ai/ha): 90
- Ragweed plant response rating (0-100) ([9]; 31 g ai/ha): 0
- Ragweed plant response rating (0 to 100 scale) ([9]; 125 g ai/ha): 0
- Wheat plant response rating (0-100) ([10]; 31 g ai/ha): 50
- Wheat plant response rating (0 to 100 scale) ([10]; 125 g ai/ha): 90
- Soybean plant response rating (0-100) (soybean (Glycine max) [11]; 31 g ai/ha): 10
- Soybean plant response rating (0 to 100 scale) (soybean (Glycine max) [11]; 125 g ai/ha): 0
- Amaranth, Palmer plant response rating (0-100) ([12]; 31 g ai/ha): 0
- Amaranth, Palmer plant response rating (0 to 100 scale) ([12]; 125 g ai/ha): 0
- Ryegrass, Italian plant response rating (0-100) ([13]; 31 g ai/ha): 0
- Ryegrass, Italian plant response rating (0 to 100 scale) ([13]; 125 g ai/ha): 90
- Kochia plant response rating (0-100) (kochia (Bassia scoparia) [14]; 31 g ai/ha): 20
- Kochia plant response rating (0 to 100 scale) (kochia (Bassia scoparia) [14]; 125 g ai/ha): 70
- Corn plant response rating (0-100) (corn (Zea mays) [15]; [27]): 20
- Corn plant response rating (0 to 100 scale) (corn (Zea mays) [15]; [28]): 50
- Blackgrass plant response rating (0-100) [16, 27]: 50
- Blackgrass plant response rating (0 to 100 scale) [16, 28]: 80
- Foxtail, Green plant response rating (0-100) [17, 27]: 20
- Foxtail, Green plant response rating (0 to 100 scale) [17, 28]: 60
- Barnyardgrass plant response rating (0-100) [18, 27]: 10
- Barnyardgrass plant response rating (0 to 100 scale) [18, 28]: 100
- Oat, Wild plant response rating (0-100) [19, 27]: 80
- Oat, Wild plant response rating (0 to 100 scale) [19, 28]: 90
- Ragweed plant response rating (0-100) [20, 27]: 0
- Ragweed plant response rating (0 to 100 scale) [20, 28]: 0
- Horseweed plant response rating (0-100) [21, 27]: 0
- Horseweed plant response rating (0 to 100 scale) [21, 28]: 10
- Wheat plant response rating (0-100) [22, 27]: 50
- Wheat plant response rating (0 to 100 scale) [22, 28]: 60
- Soybean plant response rating (0-100) (soybean (Glycine max) [23]; [27]): 30
- Soybean plant response rating (0 to 100 scale) (soybean (Glycine max) [23]; [28]): 50
- Amaranth, Palmer plant response rating (0-100) [24, 27]: 0
- Amaranth, Palmer / Pigweed, Palmer plant response rating (0 to 100 scale) [24, 28]: 20
- Ryegrass, Italian plant response rating (0-100) [25, 27]: 60
- Ryegrass, Italian plant response rating (0 to 100 scale) [25, 28]: 80
- Kochia plant response rating (0-100) (kochia (Bassia scoparia) [26]; [27]): 20
- Kochia plant response rating (0 to 100 scale) (kochia (Bassia scoparia) [26]; [28]): 80
